Test results reported in PMC11799252, “The differentiation state of small intestinal organoid models influences prediction of drug-induced toxicity” (Frontiers in Cell and Developmental Biology, 2025).
Read-outs that look alike come from different tables or passages of the source.

Columns and labels:
[1] = test system: differentiated duodenum organoids; test: Cell viability (Cell Titer Glo 3D, ATP) in differentiated organoid model; conditions: for IC50: Homo sapiens, read-out: IC50 (μM) Diff.
Protocol: (§1) Organoids were grown for 7–10 days then dissociated using TrypLE™ Express Enzyme, as described above. Single cells were resuspended in BME at a density of 5–6 × 10^5 cells/mL on ice and plated as 5 μL/well domes in clear-bottom 96-well plates (Corning). The domes were cured for 10–15 min at 37°C and overlaid with 100 μL of growth media replaced every 2–3 days.
(§2) Compounds were administered after 5–6 days in growth medium for proliferative organoids or after an additional 4 days in differentiation medium for differentiated organoids. Organoid media was replaced with 90 μL fresh media immediately prior to dosing. Compounds were diluted in growth or differentiation medium and administered as a 5-fold dilution series at 5-8 concentrations with corresponding 0.5% DMSO vehicle control (1% DMSO for aspirin), at 10 μL/well in triplicate. […] After 3 days of treatment, cultures were imaged by brightfield microscopy (THUNDER DMi8 inverted light microscope with a 2.5× objective and a DFC9000 GTC camera (Leica)). Wells were precluded from analysis on visual quality control (i.e., organoid loss due to BME degradation/dislodging or insufficient seeding density) congruent with cytotoxicity analysis. An equal volume of Cell Titer Glo 3D Reagent (Promega) was added to each well as described by the manufacturer’s instructions. Luminescence was measured on EnSight and EnVision (Perkin Elmer) plate readers and normalized to on-plate vehicle controls (0.5%–1% DMSO) in corresponding growth or differentiation medium. Experiments were conducted in technical triplicates and repeated in organoids from 3 different donors (donor demographics noted in Supplementary Table S1). Normalized viability was averaged at each concentration for each donor, and mean of donors was fit to a 4-Parameter Logistic (4PL) curve using Prism (GraphPad) to estimate the half-maximal inhibitory concentration (IC50) for each compound.
(§3) To compare toxicity responses of proliferative and differentiated organoids, proliferative organoids were grown 5–6 days in OGM prior to dosing, while differentiated organoids were transitioned to ODM for an additional 4 days prior to dosing (Figure 2A). Both proliferative and differentiated organoids were incubated with compounds or a 0.5%–1% DMSO vehicle control (as indicated) for 3 days prior to measuring ATP levels as a readout for cell viability. […] Compound-treated organoid ATP readouts were normalized to vehicle controls and a half-maximal inhibitory concentration (IC50) was calculated from dose-response curves of organoid viability for five compounds across 3 donor organoid lines.

[2] = clinical plasma, cited from earlier work
[3] = clinical, cited from earlier work
[4] = test system: proliferative duodenum organoids; test: Cell viability (Cell Titer Glo 3D, ATP) in proliferative organoid model; conditions: for IC50: Homo sapiens, 72 h, read-out: IC50 (μM) Prolif.
Protocol: as §1, §2, §3

[5] = Cell viability (Cell Titer Glo 3D, ATP) in differentiated organoid model; conditions: human, differentiated duodenum organoids
Protocol: as §1, §2, §3

[6] = ref Peters et al., 2019, 2020, Belair et al.
[7] = patients, ref Peters et al., 2019

Row | SMILES | IC50 [1] [µM] | fold increase in IC50, differentiated vs proliferative organoids ([1]; IC50 differentiated / IC50 proliferative) | Cmax [2, 6] [µM] | Incidence of Diarrhea (%) [3, 7] [%] | IC50 [4] [µM] | decreases in viability ([1]; below 100 µM, differentiated organoids, 3 days) | IC50/Cmax Diff. ([1]; human, 3 days) | cytotoxicity at 3 days, 200 µM [5] [%] | Cmax ([2]; high-dose oral administration, ref Nagelschmitz et al. (2014)) [µM] | Incidence of Diarrhea (%) ([3]; oral dosing, ref Rampal et al., 2001) | Incidence of Diarrhea (%) ([3]; oral dosing, ref Rampal et al., 2001, listed as Aspirin) | decline in viability ([4]; 200 µM, proliferative organoids, 3 days) | decreases in viability ([4]; below 100 µM, proliferative organoids, 3 days) | IC50/Cmax Prolif. ([4]; human, 3 days)
1 | CN(C)C/C=C/C(=O)Nc1cc2c(Nc3ccc(F)c(Cl)c3)ncnc2cc1O[C@H]1CCOC1 [afatinib] | 4.16 | over 100 fold | 0.078 | 96 | 0.036 | – | – | – | – | – | – | – | – | –
2 | COc1cc2c(c(OC)c1OC)-c1ccc(OC)c(=O)cc1[C@@H](NC(C)=O)CC2 [colchicine] | – | – | 0.017 | – | – | – | – | – | – | – | – | – | – | –
3 | CNC(=O)c1cc(Oc2ccc(NC(=O)Nc3ccc(Cl)c(C(F)(F)F)c3)cc2)ccn1 [sorafenib] | 8.42 | – | 6.2 | 43 | 10 | – | – | – | – | – | – | – | – | –
4 | CC(=O)Oc1ccccc1C(=O)O [aspirin, Acetylsalicylic acid] | 626 | – | – | – | 1770 | minimal | 23.3 | ~25 | 26.9 | less than 2% | 1.8 | no decline | minimal | 65.9
